Values after ≈ are worked out from the molar mass of the structure shown. Like-named read-outs stand apart in the source and are kept apart here.
What was measured:
Septoria tritici (St) = assay: Growth inhibition assay of fungal pathogens, St; assay type: cell-based; details: Zymoseptoria tritici, 48 h, Septoria tritici, read-out: Concentration at 90% Inhibition St
Procedure, shortened: (§1)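 Spore suspension in 17% V8 liquid media; cpd final 50/10/2 or 2/0.4/0.08 ppm, 2% DMSO. OD600 + visual, 24 & 48 h; % inhibition at 48 h vs 2% DMSO ctrl.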

[1] = system: Fusarium virguliforme (Fv); assay: Growth inhibition assay of fungal pathogens, Fv; assay type: cell-based; details: 48 h, read-out: Concentration at 90% Inhibition Fv
Procedure, shortened: as §1

[2] = system: Collectotrichum graminicola (Cg); assay: Growth inhibition assay of fungal pathogens, Cg; assay type: cell-based; details: 48 h, Collectotrichum graminicola, read-out: Concentration at 90% Inhibition Cg
Procedure, shortened: as §1

C. krusei = assay: Antifungal Activity Assay (broth microtiter MIC), C. krusei; assay type: cell-based, Candida krusei; details: Pichia kudriavzevii, ATCC6258, 48 h, ATCC 6258, 3 replicates, MIC recorded at 48 h, read-out: MIC, C. krusei ATCC 6258
Procedure, shortened: (§2)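 MICs were scored by eye at 48 h relative to the growth control. Plates followed CLSI M27-A3, with Candida suspensions in RPMI 1640+MOPS giving a final 2.5×10^3 CFU/mL; the colonies came from Sabouraud agar grown overnight at 35 °C.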

[3] = system: Fusarium moniliforme (Fm); assay: Growth inhibition assay of fungal pathogens, Fm; assay type: cell-based; details: Fusarium verticillioides, 48 h, Fusarium moniliforme, read-out: Concentration at 90% Inhibition Fm
Procedure, shortened: as §1

Rhizoctonia solani (Rs) = assay: Growth inhibition assay of fungal pathogens, Rs; assay type: cell-based; details: 48 h, mycelial plugs, read-out: Concentration at 90% Inhibition Rs
[4] = system: Phytophthora capsici (Pc); assay: Growth inhibition assay of fungal pathogens, Pc; assay type: cell-based; details: 48 h, read-out: Concentration at 90% Inhibition Pc
Procedure, shortened: as §1

fungal (fACC2) = fungal (fACC2) (UniProt Q00955); details: read-out: fACC2 (in vitro ACC2 Inhibition Assay, IC50), ADP-Glo, 5 nM ACC2, 20 μM ATP, 20 μM acetyl-CoA
Sequence of fungal (fACC2) (Q00955 whole entry): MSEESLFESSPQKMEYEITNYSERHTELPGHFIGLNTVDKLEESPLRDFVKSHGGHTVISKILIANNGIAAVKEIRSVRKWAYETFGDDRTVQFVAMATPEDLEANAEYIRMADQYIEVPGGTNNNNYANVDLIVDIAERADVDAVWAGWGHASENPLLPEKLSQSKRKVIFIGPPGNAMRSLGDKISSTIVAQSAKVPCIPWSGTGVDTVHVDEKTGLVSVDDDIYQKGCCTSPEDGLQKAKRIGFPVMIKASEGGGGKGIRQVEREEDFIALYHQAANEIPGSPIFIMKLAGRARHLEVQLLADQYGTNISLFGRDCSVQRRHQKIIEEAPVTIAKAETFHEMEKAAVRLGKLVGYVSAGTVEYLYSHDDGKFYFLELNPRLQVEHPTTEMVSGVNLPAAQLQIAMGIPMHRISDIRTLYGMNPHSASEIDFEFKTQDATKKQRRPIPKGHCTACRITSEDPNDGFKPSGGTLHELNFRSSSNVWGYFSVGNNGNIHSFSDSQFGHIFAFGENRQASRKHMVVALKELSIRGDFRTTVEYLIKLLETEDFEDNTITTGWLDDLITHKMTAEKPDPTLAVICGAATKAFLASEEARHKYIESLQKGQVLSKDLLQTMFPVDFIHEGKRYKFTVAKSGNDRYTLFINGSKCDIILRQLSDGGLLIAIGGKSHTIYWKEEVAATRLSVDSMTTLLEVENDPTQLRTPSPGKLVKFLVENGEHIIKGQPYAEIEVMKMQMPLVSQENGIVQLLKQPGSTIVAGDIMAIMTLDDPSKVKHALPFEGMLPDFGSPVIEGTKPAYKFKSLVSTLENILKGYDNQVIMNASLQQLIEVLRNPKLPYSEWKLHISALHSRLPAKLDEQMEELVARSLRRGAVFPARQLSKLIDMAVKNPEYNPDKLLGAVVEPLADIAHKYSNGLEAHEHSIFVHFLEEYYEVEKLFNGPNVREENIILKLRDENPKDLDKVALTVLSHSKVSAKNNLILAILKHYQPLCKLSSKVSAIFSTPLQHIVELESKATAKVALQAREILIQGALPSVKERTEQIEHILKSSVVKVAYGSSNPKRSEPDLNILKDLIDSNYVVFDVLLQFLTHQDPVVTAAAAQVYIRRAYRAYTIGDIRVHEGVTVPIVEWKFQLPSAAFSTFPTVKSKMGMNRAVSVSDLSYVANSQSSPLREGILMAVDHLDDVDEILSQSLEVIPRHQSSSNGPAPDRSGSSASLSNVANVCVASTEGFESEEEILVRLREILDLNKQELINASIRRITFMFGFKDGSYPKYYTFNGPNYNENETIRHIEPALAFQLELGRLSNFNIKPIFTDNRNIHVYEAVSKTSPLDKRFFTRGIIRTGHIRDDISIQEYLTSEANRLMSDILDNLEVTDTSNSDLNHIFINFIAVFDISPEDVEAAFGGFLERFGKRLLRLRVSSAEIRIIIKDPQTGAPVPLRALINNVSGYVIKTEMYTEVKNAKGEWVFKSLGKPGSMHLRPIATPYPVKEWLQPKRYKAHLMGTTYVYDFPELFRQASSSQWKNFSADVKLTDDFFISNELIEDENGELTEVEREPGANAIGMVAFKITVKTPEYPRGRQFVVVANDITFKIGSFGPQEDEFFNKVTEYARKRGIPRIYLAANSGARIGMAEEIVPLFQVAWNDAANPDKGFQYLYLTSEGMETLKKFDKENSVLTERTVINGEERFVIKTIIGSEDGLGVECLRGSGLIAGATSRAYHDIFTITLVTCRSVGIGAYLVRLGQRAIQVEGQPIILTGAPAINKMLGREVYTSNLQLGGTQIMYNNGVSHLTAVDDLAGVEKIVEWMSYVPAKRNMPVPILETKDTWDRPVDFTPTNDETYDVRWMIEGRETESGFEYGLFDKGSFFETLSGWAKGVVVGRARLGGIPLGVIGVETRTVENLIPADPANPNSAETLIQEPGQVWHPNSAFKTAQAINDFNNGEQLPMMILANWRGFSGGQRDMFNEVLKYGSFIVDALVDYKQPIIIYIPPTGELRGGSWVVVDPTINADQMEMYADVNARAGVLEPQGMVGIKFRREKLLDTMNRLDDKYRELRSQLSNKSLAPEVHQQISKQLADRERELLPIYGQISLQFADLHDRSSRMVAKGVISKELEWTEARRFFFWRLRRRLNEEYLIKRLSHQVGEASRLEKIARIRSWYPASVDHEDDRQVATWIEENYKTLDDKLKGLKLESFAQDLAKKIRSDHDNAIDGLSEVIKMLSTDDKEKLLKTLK

C. parapsilosis = assay: Antifungal Activity Assay (broth microtiter MIC), C. parapsilosis; assay type: cell-based, Candida parapsilosis; details: Lodderomyces parapsilosis, ATCC22019, 48 h, ATCC 22019, 3 replicates, MIC recorded at 48 h, read-out: MIC, C. parapsilosis ATCC 22019
Procedure, shortened: as §2

human (hACC2) = human (hACC2) (Homo sapiens, UniProt O00763); assay: In vitro ACC inhibition assay (ADP-Glo), hACC2; assay type: biochemical; details: 5 nM ACC2, 20 μM ATP, 20 μM acetyl-CoA
Sequence of human (hACC2) (O00763 whole entry): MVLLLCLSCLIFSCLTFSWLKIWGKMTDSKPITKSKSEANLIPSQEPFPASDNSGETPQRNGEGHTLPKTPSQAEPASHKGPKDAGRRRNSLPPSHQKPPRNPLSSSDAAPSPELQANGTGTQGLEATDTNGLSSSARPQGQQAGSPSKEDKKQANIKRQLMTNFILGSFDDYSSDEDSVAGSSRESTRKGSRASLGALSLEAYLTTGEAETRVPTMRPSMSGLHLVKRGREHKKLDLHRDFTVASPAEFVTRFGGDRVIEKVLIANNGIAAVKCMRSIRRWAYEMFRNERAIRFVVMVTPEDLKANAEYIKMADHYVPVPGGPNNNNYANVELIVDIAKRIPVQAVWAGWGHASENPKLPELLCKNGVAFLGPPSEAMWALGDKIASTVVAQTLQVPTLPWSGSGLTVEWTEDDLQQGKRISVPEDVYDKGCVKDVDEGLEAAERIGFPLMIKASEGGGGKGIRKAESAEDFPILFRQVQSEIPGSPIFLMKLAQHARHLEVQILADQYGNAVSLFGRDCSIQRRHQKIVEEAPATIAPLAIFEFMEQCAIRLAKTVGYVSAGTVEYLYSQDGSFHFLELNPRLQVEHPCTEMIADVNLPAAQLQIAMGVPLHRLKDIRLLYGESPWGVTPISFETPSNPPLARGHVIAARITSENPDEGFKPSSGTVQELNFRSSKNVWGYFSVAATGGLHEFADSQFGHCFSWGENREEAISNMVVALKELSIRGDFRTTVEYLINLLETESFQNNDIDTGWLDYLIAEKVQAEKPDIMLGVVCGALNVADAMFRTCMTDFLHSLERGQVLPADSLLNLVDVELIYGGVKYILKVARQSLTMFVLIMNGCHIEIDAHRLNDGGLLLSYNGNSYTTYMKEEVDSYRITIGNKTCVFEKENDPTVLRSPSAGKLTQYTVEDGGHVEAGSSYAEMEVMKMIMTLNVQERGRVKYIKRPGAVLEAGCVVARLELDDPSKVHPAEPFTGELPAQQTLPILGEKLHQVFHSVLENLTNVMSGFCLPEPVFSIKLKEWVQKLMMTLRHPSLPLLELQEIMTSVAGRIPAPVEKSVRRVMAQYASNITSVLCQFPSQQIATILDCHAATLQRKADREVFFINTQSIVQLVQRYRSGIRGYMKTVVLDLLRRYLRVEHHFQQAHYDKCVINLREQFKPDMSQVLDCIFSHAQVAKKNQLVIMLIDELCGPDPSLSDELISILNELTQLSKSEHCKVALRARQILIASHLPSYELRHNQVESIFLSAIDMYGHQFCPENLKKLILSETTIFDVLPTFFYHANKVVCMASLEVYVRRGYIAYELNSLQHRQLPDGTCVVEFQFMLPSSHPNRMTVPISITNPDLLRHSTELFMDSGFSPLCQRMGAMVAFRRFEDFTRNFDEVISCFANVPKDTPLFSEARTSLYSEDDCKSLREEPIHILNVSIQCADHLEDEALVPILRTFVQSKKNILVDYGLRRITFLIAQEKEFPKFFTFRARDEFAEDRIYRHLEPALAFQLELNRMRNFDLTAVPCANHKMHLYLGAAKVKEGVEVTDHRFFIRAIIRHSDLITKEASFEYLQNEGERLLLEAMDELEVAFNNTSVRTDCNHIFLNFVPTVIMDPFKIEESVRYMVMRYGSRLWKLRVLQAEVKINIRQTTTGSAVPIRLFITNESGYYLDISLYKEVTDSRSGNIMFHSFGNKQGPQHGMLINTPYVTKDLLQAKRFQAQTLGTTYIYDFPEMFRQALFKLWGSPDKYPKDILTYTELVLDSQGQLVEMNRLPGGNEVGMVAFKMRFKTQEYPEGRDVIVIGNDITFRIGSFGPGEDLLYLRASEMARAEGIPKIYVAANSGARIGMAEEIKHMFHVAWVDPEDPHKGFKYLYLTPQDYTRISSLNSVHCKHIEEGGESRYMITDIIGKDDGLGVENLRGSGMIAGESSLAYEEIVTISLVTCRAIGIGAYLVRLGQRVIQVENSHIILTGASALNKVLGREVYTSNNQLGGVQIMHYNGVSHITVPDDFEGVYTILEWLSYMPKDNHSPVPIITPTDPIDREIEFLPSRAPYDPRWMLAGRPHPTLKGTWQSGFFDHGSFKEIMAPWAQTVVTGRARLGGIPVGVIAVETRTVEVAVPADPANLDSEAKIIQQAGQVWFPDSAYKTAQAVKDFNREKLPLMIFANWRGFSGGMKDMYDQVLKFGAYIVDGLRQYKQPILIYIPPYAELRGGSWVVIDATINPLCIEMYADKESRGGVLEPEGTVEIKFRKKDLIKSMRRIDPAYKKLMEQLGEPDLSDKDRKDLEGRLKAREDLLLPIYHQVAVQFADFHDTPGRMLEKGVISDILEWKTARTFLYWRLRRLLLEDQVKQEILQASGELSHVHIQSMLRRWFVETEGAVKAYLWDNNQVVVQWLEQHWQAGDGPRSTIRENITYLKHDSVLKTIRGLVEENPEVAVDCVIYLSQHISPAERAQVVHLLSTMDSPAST
Experimental: The detailed procedure is as follows. […] 10 μL ADP glo reagent was added. […] 20 μL kinase detection reagent was added.

[5] = growth inhibition at 48 hours vs 2% DMSO control
[6] = growth inhibition vs 2% DMSO control at 48 hours

Row | Compound | IC90 (Septoria tritici (St); [5]) [µg/mL] | IC90 (Septoria tritici (St); [6]) [µg/mL] | IC90 [1, 5] [µg/mL] | IC90 [1, 6] [µg/mL] | IC90 [2, 5] [µg/mL] | IC90 [2, 6] [µg/mL] | MIC (C. krusei; Table 3a) [µg/mL] | MIC (C. krusei; Table 3b (additional results)) [µg/mL] | IC90 [3, 5] [µg/mL] | IC90 [3, 6] [µg/mL] | IC90 (Rhizoctonia solani (Rs); [5]) [µg/mL] | IC90 (Rhizoctonia solani (Rs); [6]) [µg/mL] | IC90 [4, 5] [µg/mL] | IC90 [4, 6] [µg/mL] | IC50 (fungal (fACC2); Table 2a) [nM] | IC50 (fungal (fACC2); Table 2b, additional results) [nM] | MIC (C. parapsilosis; Table 3a) [µg/mL] | MIC (C. parapsilosis; Table 3b (additional results)) [µg/mL] | IC50 (human (hACC2); Table 2a) [nM] | IC50 (human (hACC2); Table 2b, additional results) [nM]
1 | COc1ccc(F)cc1[C@H](Cn1c(=O)n(C(C)(C)C(N)=O)c(=O)c2c(C)c(-n3nccn3)sc21)OC(C)C [Compound I-2, (R)-2-(1-(2-(5-fluoro-2-methoxyphenyl)-2-isopropoxyethyl)-5-methyl-2,4-dioxo-6-(2H-1,2,3-triazol-2-yl)-1,4-dihydrothieno[2,3-d]pyrimidin-3(2H)-yl)-2-methylpropanamide] | > 50 | > 50 | 0.4 (≈ 0.734 µM) | 0.4 (≈ 0.734 µM) | 2 (≈ 3.67 µM) | 2 (≈ 3.67 µM) | 0.25 to 1 (≈ 0.459 to 1.84 µM) | 0.25 to 1 (≈ 0.459 to 1.84 µM) | 0.4 (≈ 0.734 µM) | 0.4 (≈ 0.734 µM) | 0.08 (≈ 0.147 µM) | 0.08 (≈ 0.147 µM) | > 50 | > 50 | 1 to 5 | 1 to 5 | 2.1 to 4 (≈ 3.86 to 7.34 µM) | > 4.01 | 1 to 5 | 1 to 5
2 | Cc1c(-n2nccn2)sc2c1c(=O)n(C(C)(C)C(=O)NC(C)C)c(=O)n2C[C@H](OC(C)C)c1cc(F)ccc1OCCO [Compound I-53, (R)-2-(1-(2-(5-fluoro-2-(2-hydroxyethoxy)phenyl)-2-isopropoxyethyl)-5-methyl-2,4-dioxo-6-(2H-1,2,3-triazol-2-yl)-1,4-dihydrothieno[2,3-d]pyrimidin-3(2H)-yl)-N-isopropyl-2-methylpropanamide] | > 50 | > 50 | 0.4 (≈ 0.649 µM) | 0.4 (≈ 0.649 µM) | 0.4 (≈ 0.649 µM) | 0.4 (≈ 0.649 µM) | 0.25 to 1 (≈ 0.405 to 1.62 µM) | 0.06 to 0.249 (≈ 0.0973 to 0.404 µM) | 0.08 (≈ 0.13 µM) | 0.08 (≈ 0.13 µM) | 0.08 (≈ 0.13 µM) | 0.08 (≈ 0.13 µM) | > 50 | > 50 | 1 to 5 | 1 to 5 | 0.25 to 1 (≈ 0.405 to 1.62 µM) | 1.01 to 2 (≈ 1.64 to 3.24 µM) | 10 to 40 | 10 to 40
3 | COc1ccc(F)cc1[C@H](Cn1c(=O)n(C(C)(C)C(=O)NC(C)C)c(=O)c2c(C)c(-n3nccn3)sc21)OCCC(N)=O [Compound I-90, (R)-2-(1-(2-(3-amino-3-oxopropoxy)-2-(5-fluoro-2-metho-xyphenyl)ethyl)-5-methyl-2,4-dioxo-6-(2H-1,2,3-triazol-2-yl)-1,4-dihydro-thieno[2,3-d]pyrimidin-3(2H)-yl)-N-isopropyl-2-methylpropanamide] | > 50 | > 50 | 0.4 (≈ 0.65 µM) | 0.4 (≈ 0.65 µM) | 10 (≈ 16.2 µM) | > 50 | 1.1 to 2 (≈ 1.79 to 3.25 µM) | 0.25 to 1 (≈ 0.406 to 1.62 µM) | 0.4 (≈ 0.65 µM) | 0.4 (≈ 0.65 µM) | 2 (≈ 3.25 µM) | 2 (≈ 3.25 µM) | > 50 | > 50 | 1 to 5 | 1 to 5 | 2.1 to 4 (≈ 3.41 to 6.5 µM) | 0.25 to 1 (≈ 0.406 to 1.62 µM) | 10 to 40 | 10 to 40
4 | COc1ccc(F)cc1[C@H](Cn1c(=O)n([C@@H](C)C(=O)N(C)C(C)C)c(=O)c2c(C)c(-n3nccn3)sc21)OCCO [Compound I-78, (S)-2-(1-((R)-2-(5-fluoro-2-methoxyphenyl)-2-(2-hydroxy-ethoxy)ethyl)-5-methyl-2,4-dioxo-6-(2H-1,2,3-triazol-2-yl)-1,4-dihydrothieno[2,3-d]pyrimidin-3(2H)-yl)-N-isopropyl-N-methylpropanamide] | 10 (≈ 17 µM) | > 50 | 0.4 (≈ 0.68 µM) | 0.4 (≈ 0.68 µM) | 0.4 (≈ 0.68 µM) | 0.4 (≈ 0.68 µM) | 2.1 to 4 (≈ 3.57 to 6.8 µM) | 1.01 to 2 (≈ 1.72 to 3.4 µM) | 0.08 (≈ 0.136 µM) | 0.08 (≈ 0.136 µM) | 0.08 (≈ 0.136 µM) | 0.08 (≈ 0.136 µM) | > 50 | > 50 | 1 to 5 | 0.3 to 1 | 2.1 to 4 (≈ 3.57 to 6.8 µM) | 2.01 to 4 (≈ 3.41 to 6.8 µM) | 10 to 40 | 10 to 40
